The target in the test is T1, visual cycle isomerase (Bovine RPE microsome membranes) (Bos taurus, UniProt Q28175).
T1 construct: Bovine Retinal Pigment Epithelium (RPE) microsome membranes were the source of a visual cycle isomerase; from tissue; host or cells: bovine retinal pigment epithelium microsome membranes
T1 sequence (Q28175 2-533 limits assumed): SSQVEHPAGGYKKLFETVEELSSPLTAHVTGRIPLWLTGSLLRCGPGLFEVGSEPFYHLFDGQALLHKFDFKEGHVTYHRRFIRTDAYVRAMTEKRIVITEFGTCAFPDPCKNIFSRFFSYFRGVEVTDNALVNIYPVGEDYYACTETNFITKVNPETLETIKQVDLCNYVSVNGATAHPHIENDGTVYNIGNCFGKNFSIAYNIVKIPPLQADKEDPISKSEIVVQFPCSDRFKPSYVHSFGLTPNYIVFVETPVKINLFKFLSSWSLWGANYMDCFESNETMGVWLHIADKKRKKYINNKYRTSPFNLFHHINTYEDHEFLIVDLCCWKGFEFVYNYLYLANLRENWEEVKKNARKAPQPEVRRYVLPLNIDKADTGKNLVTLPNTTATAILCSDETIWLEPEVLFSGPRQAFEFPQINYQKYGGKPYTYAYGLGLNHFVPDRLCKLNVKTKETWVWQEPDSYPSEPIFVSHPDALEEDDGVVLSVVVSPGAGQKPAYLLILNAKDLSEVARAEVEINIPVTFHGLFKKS
The experiment in a line: In vitro isomerase inhibition assay, bovine RPE microsome membranes. It counts as biochemical. The settings on record: bovine RPE microsomes; 11-cis retinol formation. As to the method:
The capability of alkynyl phenyl-linked amine derivative compounds to inhibit the activity of a visual cycle isomerase was determined.
Bovine Retinal Pigment Epithelium (RPE) microsome membranes were the source of a visual cycle isomerase.
Crude RPE microsome extracts were thawed in a 37° C. water bath, and then immediately placed on ice. 50 ml crude RPE microsomes were placed into a 50 ml Teflon-glass homogenizer (Fisher Scientific, catalog no. 0841416M) on ice, powered by a hand-held DeWalt drill, and homogenized ten times up and down on ice under maximum speed. This process was repeated until the crude RPE microsome solution was homogenized. The homogenate was then subjected to centrifugation (50.2 Ti rotor (Beckman, Fullerton, Calif.), 13,000 RPM; 15360 Rcf) for 15 minutes at 4° C. The supernatant was collected and subjected to centrifugation at 42,000 RPM (160,000 Rcf; 50.2 Ti rotor) for 1 hour at 4° C. The supernatant was removed, and the pellets were suspended in 12 ml (final volume) cold 10 mM MOPS buffer, pH 7.0. The resuspended RPE membranes in 5 ml aliquots were homogenized in a glass-to-glass homogenizer (Fisher Scientific, catalog no. K885500-0021) to high homogeneity. Protein concentration was quantified using the BCA protein assay according to the manufacturer's protocol (Pierce, Rockford, Ill.). The homogenized RPE preparations were stored at −80° C.
Recombinant human apo cellular retinaldehyde-binding protein (CRALBP) was cloned and expressed according to standard methods in the molecular biology art (see Crabb et al., Protein Science 7:746-57 (1998); Crabb et al., J. Biol. Chem. 263:18688-92 (1988)). Briefly, total RNA was prepared from confluent ARPE19 cells (American Type Culture Collection, Manassas, Va.), cDNA was synthesized using an oligo(dT)12-18 primer, and then DNA encoding CRALBP was amplified by two sequential polymerase chain reactions (see Crabb et al., J. Biol. Chem. 263:18688-92 (1988); Intres, et al., J. Biol. Chem. 269:25411-18 (1994); GenBank Accession No. L34219.1). The PCR product was sub-cloned into pTrcHis2-TOPO TA vector according to the manufacturer's protocol (Invitrogen Inc., Carlsbad, Calif.; catalog no. K4400-01), and then the sequence was confirmed according to standard nucleotide sequencing techniques. Recombinant 6×His-tagged human CRALBP was expressed in One Shot TOP 10 chemically competent E. coli cells (Invitrogen), and the recombinant polypeptide was isolated from E. coli cell lysates by nickel affinity chromatography using nickel (Ni) Sepharose XK16-20 columns for HPLC (Amersham Bioscience, Pittsburgh, Pa.; catalog no. 17-5268-02). The purified 6×His-tagged human CRALBP was dialyzed against 10 mM bis-tris-Propane (BTP) and analyzed by SDS-PAGE. The molecular weight of the recombinant human CRALBP was approximately 39 kDal.
Alkkynyl phenyl-linked amine derivative compounds and control compounds were reconstituted in ethanol to 0.1 M. Ten-fold serial dilutions (10^−2, 10^−3, 10^−4, 10^−5, 10^−6 M) in ethanol of each compound were prepared for analysis in the isomerase assay.
The isomerase assay was performed in 10 mM bis-tris-propane (BTP) buffer, pH 7.5, 0.5% BSA (diluted in BTP buffer), 1 mM sodium pyrophosphate, 20 μM all-trans retinol (in ethanol), and 6 μM apo-CRALBP. The test compounds (2 μl) (final […] dilution of serial dilution stocks) were added to the above reaction mixture to which RPE microsomes were added. The same volume of ethanol was added to the control reaction (absence of test compound). Bovine RPE microsomes (9 μl) (see above) were then added, and the mixtures transferred to 37° C. to initiate the reaction (total volume=150 μl). The reactions were stopped after 30 minutes by adding methanol (300 μl). Heptane was added (300 μl) and mixed into the reaction mixture by pipetting. Retinoid was extracted by agitating the reaction mixtures, followed by centrifugation in a microcentrifuge. […]

By IC50 is commonly meant the concentration needed to halve the response being measured. Lower therefore signals greater potency.

The compound `CC(=O)NCCCc1cccc(C#CC2(O)CCCCC2)c1` [Example 60, N-(3-(3-((1-Hydroxycyclohexyl)Ethynyl)Phenyl)Propyl)Acetamide] showed an IC50 not above 10 µM.

With `COc1ccccc1C#Cc1cccc(C(O)CCN)c1` (stereo not shown) [Example 54, 3-Amino-1-(3-((2-Methoxyphenyl)Ethynyl)Phenyl)Propan-1-ol], the IC50 is not above 1 µM.

`NCCC(O)c1cccc(C#CC2(O)CCCCC2)c1` (stereo not shown) [Example 99, 1-((3-(3-Amino-1-hydroxypropyl)phenyl)ethynyl)cyclohexanol] yielded an IC50 not above 1 µM.

As for `CCCC(O)(C#Cc1cccc([C@H](O)CCN)c1)CCC` [Compound 100, (R)-4-((3-(3-Amino-1-Hydroxypropyl)Phenyl)Ethynyl)Heptan-4-ol], the IC50 is not above 1 µM.

On to `NCCCc1cccc(C#C[C@@H](O)c2ccccc2)c1` [Example 26, (S)-3-(3-(3-Aminopropyl)phenyl)-1-phenylprop-2-yn-1-ol], for which the IC50 was not above 10 µM.

Regarding `NCCC(O)c1cccc(C#CC2CCCC2)c1` (stereo not shown) [Example 47, 3-Amino-1-(3-(cyclopentylethynyl)phenyl)propan-1-ol], the IC50 was not above 1 µM.

For `NCCOc1cccc(C#CC2(O)CCCC2)c1` [Example 31, 1-((3-(2-Aminoethoxy)phenyl)ethynyl)cyclopentanol], the IC50 is not above 1 µM.

In turn, `CC(C)(C)C(C)(O)C#Cc1cccc(CCCN)c1` (stereo not shown) [Example 25, 1-(3-(3-Aminopropyl)phenyl)-3,4,4-trimethylpent-1-yn-3-ol] registered an IC50 not above 1 µM.

`CC(C)C(O)(C#Cc1cccc(OCCN)c1)C(C)C` [Example 28, 1-(3-(2-Aminoethoxy)phenyl)-3-isopropyl-4-methylpent-1-yn-3-ol]: the IC50 was not above 1 µM.

With `NCCCc1cccc(C#Cc2ccccc2)c1` [Example 37, 3-(3-(Phenylethynyl)phenyl)propan-1-amine], the IC50 is not above 1 µM.

Compound `NCCOc1cccc(C#Cc2cccnc2)c1` [Example 62, 2-(3-(Pyridin-3-ylethynyl)phenoxy)ethanamine] had an IC50 not above 10 µM.

`CCCC(O)C#Cc1cccc(CCCN)c1` (stereo not shown) [Example 8, 1-(3-(3-Aminopropyl)phenyl)hex-1-yn-3-ol] gave an IC50 not above 1 µM.

Turning to `NCCC(O)c1cccc(C#CCCc2ccccc2)c1` (stereo not shown) [Example 69, 3-Amino-1-(3-(4-phenylbut-1-ynyl)phenyl)propan-1-ol], the IC50 was not above 1 µM.

Compound `NCCOc1cccc(C#CC2(O)CCCCC2)c1` [Example 57, 1-((3-(2-Aminoethoxy)phenyl)ethynyl)cyclohexanol] displayed an IC50 not above 1 µM.

Compound `CCCC(O)(C#Cc1cccc([C@@H](O)CCN)c1)CCC` [Compound 101, (S)-4-((3-(3-Amino-1-Hydroxypropyl)Phenyl)Ethynyl)Heptan-4-ol] had an IC50 not above 1 µM.

The compound `CCC(O)(C#Cc1cccc(OCCN)c1)CC` [Example 27, 1-(3-(2-Aminoethoxy)phenyl)-3-ethylpent-1-yn-3-ol] gave an IC50 not above 1 µM.

As for `NCCOc1cccc(C#CCCCCO)c1` [Example 74, 6-(3-(2-Aminoethoxy)phenyl)hex-5-yn-1-ol], the IC50 was not above 1 µM.

`CC(C)(O)C#Cc1cccc(CCCN)c1` [Example 7, 4-(3-(3-Aminopropyl)phenyl)-2-methylbut-3-yn-2-ol] displayed an IC50 not above 1 µM.

Regarding `CCCC(O)(C#Cc1cccc(C(O)CCN)c1)CCC` (stereo not shown) [Example 19, 4-((3-(3-Amino-1-hydroxypropyl)phenyl)ethynyl)heptan-4-ol], the IC50 is not above 1 µM.

`NCCOc1cccc(C#CC2CCCCC2)c1` [Example 80, 2-(3-(Cyclohexylethynyl)phenoxy)ethanamine] showed an IC50 not above 1 µM.

In turn, `CCCC(O)(C#Cc1cccc(OCCN)c1)CCC` [Example 18, 4-((3-(2-Aminoethoxy)phenyl)ethynyl)heptan-4-ol] showed an IC50 not above 1 µM.

Compound `NCCC(O)c1cccc(C#CCCO)c1` (stereo not shown) [Example 51, 4-(3-(3-Amino-1-hydroxypropyl)phenyl)but-3-yn-1-ol] had an IC50 not above 1 µM.

For `CCC(O)(C#Cc1cccc(CCCN)c1)CC` [Example 1, 1-(3-(3-Aminopropyl)phenyl)-3-ethylpent-1-yn-3-ol], the half-maximal inhibitory concentration (IC50) is not above 1 µM.

For `COc1ccccc1C#Cc1cccc(CCCN)c1` [Example 36, 3-(3-((2-Methoxyphenyl)Ethynyl)Phenyl)Propan-1-Amine], the IC50 was not above 1 µM.

In turn, `CC(C)C(O)(C#Cc1cccc(CCCN)c1)C(C)C` [Example 32, 1-(3-(3-Aminopropyl)phenyl)-3-isopropyl-4-methylpent-1-yn-3-ol] registered an IC50 not above 1 µM.

The compound `NCCCc1cccc(C#Cc2ccncc2)c1` [Example 63, 3-(3-(Pyridin-4-ylethynyl)phenyl)propan-1-amine] returned an IC50 not above 10 µM.

The compound `NCCCc1cccc(C#Cc2ccccn2)c1` [Example 61, 3-(3-(Pyridin-2-ylethynyl)phenyl)propan-1-amine] displayed an IC50 not above 1 µM.

Compound `NCCCc1cccc(C#CC2CCCC2)c1` [Example 38, 3-(3-(Cyclopentylethynyl)phenyl)propan-1-amine] came in with an IC50 not above 1 µM.

`NCCOc1cccc(C#CC2(O)CCCCCC2)c1` [Example 78, 1-((3-(2-aminoethoxy)phenyl)ethynyl)-cycloheptanol] had an IC50 not above 1 µM.

For `NCCC(O)c1cccc(C#CC2CCCCC2)c1` (stereo not shown) [Example 52, 3-Amino-1-(3-(Cyclohexylethynyl)Phenyl)Propan-1-ol], the IC50 was not above 1 µM.

Take `NCCC(O)c1cccc(C#CCCCCO)c1` (stereo not shown) [Example 50, 6-(3-(3-Amino-1-hydroxypropyl)phenyl)hex-5-yn-1-ol]: the IC50 is not above 1 µM.

Regarding `NCCCc1cccc(C#CC2(O)CCCC2)c1` [Example 24, 1-((3-(3-Aminopropyl)phenyl)ethynyl)cyclopentanol], the IC50 was not above 1 µM.

For `CCCC(C#Cc1cccc(CCCN)c1)(CCC)OC` [Example 4, 3-(3-(3-Methoxy-3-propylhex-1-ynyl)phenyl)propan-1-amine], the IC50 was not above 1 µM.

With `NCCOc1cccc(C#Cc2ccccc2)c1` [Example 81, 2-(3-(Phenylethynyl)phenoxy)-ethanamine], the IC50 was not above 10 µM.

Turning to `CCCC(O)(C#Cc1cccc(CCCN)c1)CCC` [Example 2, 4-((3-(3-Aminopropyl)phenyl)ethynyl)heptan-4-ol], the IC50 is not above 1 µM.

Take `NCCCc1cccc(C#CC2(O)CCCCC2)c1` [Example 11, 1-((3-(3-Aminopropyl)phenyl)ethynyl)cyclohexanol]: the IC50 was not above 1 µM.

As to `NCCC(O)c1cccc(C#CC2(O)CCCCCC2)c1` (stereo not shown) [Example 59, 1-((3-(3-Amino-1-hydroxypropyl)phenyl)ethynyl)cycloheptanol], the IC50 was not above 1 µM.

For the origin of these results see US8492589B2, “Alkynyl phenyl derivative compounds for treating ophthalmic diseases and disorders” (Acucela Inc., priority 2007, dated 2013).
